Experiments:
[1] = system: SKBR3 (PIK3CA WT) cells, pSer473 AKT; assay: pS473 AKT assay in SKBR3 cells; assay type: cell-based; settings: Homo sapiens, SK-BR-3, treated 2 h, read-out: SKBR3_IC50
Experimental: (§1) SKBR3 (PIK3CA WT), MCF7 (PIK3CA E545K), and T47D (PIK3CA H1047R) cells were cultured using 10-cm petri dishes with recommended medium. One day before the assay, cells were seeded in 96-well plates. After overnight incubation, cells were treated with different concentrations of PI3Kα inhibitors for 2 h. Cells were then fixed using 4% paraformaldehyde at room temperature for 20 min. Cells were aspirated with 4% paraformaldehyde, and washed using 1× regular phosphate buffered saline 3 times, 5 min each. Any residual phosphate buffered saline was aspirated and cells were blocked using 10% goat serum containing 1% bovine serum albumin and 0.3% Triton X-100 at room temperature for 1 h. Without any additional washing, primary antibodies (rabbit anti-pSer473 AKT) were diluted using blocking buffer and added at a final volume of 50 microliter per well. Assay plates with primary antibodies were maintained overnight at 4° C. Cells were washed using 1× regular phosphate buffered saline 3 times, 5 min each. After the final wash, cells were incubated with horseradish peroxidase-conjugated secondary antibodies (goat Anti-rabbit IgG) and diluted using the same blocking buffer at room temperature for 1 h. Cells were then washed thoroughly using 1× regular phosphate buffered saline 3 times, 5 min each, and any residual phosphate buffered saline was aspirated. Super-Signal ELISA Pico Chemiluminescent Substrate was then added at a final volume of 100 microliter per well. Plates were read on a i3x Multi-Mode Microplate Reader and IC50 values calculated using GraphPad Prism software.
(§2) Results of the assay described above are presented in Table A. “++++” indicates an IC50 less than 1000 nM; “+++” indicates an IC50 greater than or equal to 1000 nM but less than 5000 nM; “++” indicates an IC50 greater than or equal to 5000 nM but less than 10000 nM; and “+” indicates an IC50 greater than or equal to 10000 nM.

[2] = system: T47D (PIK3CA H1047R) cells, pSer473 AKT; assay: pS473 AKT assay in T47D cells; assay type: cell-based; settings: Homo sapiens, treated 2 h, read-out: T47D_IC50
Experimental: as §1, §2

SMILES | IC50 [1] [nM] | IC50 [2] [nM]
CC(C)n1cc(-c2cc(NC(=O)c3cc(F)cc(C(F)(F)F)c3)c(Oc3cc(F)ccc3Cl)c3c(N)nn(C)c23)cn1 [Example 26, N-(3-Amino-4-(2-chloro-5-fluorophenoxy)-7-(1-isopropyl-1H-pyrazol-4-yl)-1-methyl-1H-indazol-5-yl)-3-fluoro-5-(trifluoromethyl)benzamide] | 1000 to 5000 | < 1000
Cn1nc(N)c2c(Oc3cc(F)ccc3Cl)c(NC(=O)c3cc(F)cc(C(F)(F)F)c3)cc(-c3cncnc3)c21 [Example 29, N-(3-Amino-4-(2-chloro-5-fluorophenoxy)-1-methyl-7-(pyrimidin-5-yl)-1H-indazol-5-yl)-3-fluoro-5-(trifluoromethyl)benzamide] | 1000 to 5000 | < 1000
NC(=O)Cn1nc(N)c2c(Oc3cc(F)ccc3Cl)c(NC(=O)c3cc(F)cc(C(F)(F)F)c3)cc(Br)c21 [Example 33, N-(3-Amino-1-(2-amino-2-oxoethyl)-7-bromo-4-(2-chloro-5-fluorophenoxy)-1H-indazol-5-yl)-3-fluoro-5-(trifluoromethyl)benzamide] | 1000 to 5000 | < 1000
Nc1n[nH]c2ccc(NC(=O)N3CC(O)(C(F)(F)F)c4cc(F)ccc43)c(Oc3cc(F)ccc3Cl)c12 (centres unmarked) [Example 19, N-(3-Amino-4-(2-chloro-5-fluorophenoxy)-1H-indazol-5-yl)-5-fluoro-3-hydroxy-3-(trifluoromethyl)indoline-1-carboxamide] | 1000 to 5000 | < 1000
Cn1nc(N)c2c(Oc3cc(F)ccc3Cl)c(NC(=O)c3cc(F)cc(C(F)(F)F)c3)cc(C#CC3(CO)CC3)c21 [Example 44, N-(3-Amino-4-(2-chloro-5-fluorophenoxy)-7-((1-(hydroxymethyl)cyclopropyl)ethynyl)-1-methyl-1H-indazol-5-yl)-3-fluoro-5-(trifluoromethyl)benzamide] | < 1000 | < 1000
Nc1nn(CCO)c2c(C#Cc3ccccn3)cc(NC(=O)c3cc(F)cc(C(F)(F)F)c3)c(Oc3cc(F)ccc3Cl)c12 [Example 67, N-(3-Amino-4-(2-chloro-5-fluorophenoxy)-1-(2-hydroxyethyl)-7-(pyridin-2-ylethynyl)-1H-indazol-5-yl)-3-fluoro-5-(trifluoromethyl)benzamide] | 1000 to 5000 | < 1000
Nc1n[nH]c2ccc(NC(=O)c3cc(F)cc(C(F)(F)F)c3)c(Cc3cc(F)ccc3Cl)c12 [Example 5, N-(3-Amino-4-(2-chloro-5-fluorobenzyl)-1H-indazol-5-yl)-3-fluoro-5-(trifluoromethyl)benzamide] | 5000 to 10000 | 1000 to 5000
CS(=O)(=O)n1nc(N)c2c(Oc3cc(F)ccc3Cl)c(NC(=O)c3cc(F)cc(C(F)(F)F)c3)cc(Br)c21 [Example 81, N-(3-Amino-7-bromo-4-(2-chloro-5-fluorophenoxy)-1-(methylsulfonyl)-1H-indazol-5-yl)-3-fluoro-5-(trifluoromethyl)benzamide] | 1000 to 5000 | < 1000
Cn1nc(N)c2c(Oc3cc(F)ccc3Cl)c(NC(=O)c3cc(F)cc(C(F)(F)F)c3)cc(CCc3ccccn3)c21 [Example 77, N-(3-Amino-4-(2-chloro-5-fluorophenoxy)-1-methyl-7-(2-(pyridin-2-yl)ethyl)-1H-indazol-5-yl)-3-fluoro-5-(trifluoromethyl)benzamide] | 1000 to 5000 | < 1000
Nc1n[nH]c2ccc(NC(=O)c3csc4ccccc34)c(Oc3cc(F)ccc3Cl)c12 [Example 18, N-(3-Amino-4-(2-chloro-5-fluorophenoxy)-1H-indazol-5-yl)benzo[b]thiophene-3-carboxamide] | < 1000 | < 1000
Nc1nn2c3c(cc(NC(=O)c4cc(F)cc(C(F)(F)F)c4)c(Oc4cc(F)ccc4Cl)c13)NC(=O)C2 [Example 32, N-(6-Amino-7-(2-chloro-5-fluorophenoxy)-2-oxo-2,3-dihydro-1H-pyrazolo[1,5,4-de]quinoxalin-8-yl)-3-fluoro-5-(trifluoromethyl)benzamide] | < 1000 | < 1000
Nc1n[nH]c2ccc(NC(=O)c3cc(F)cc(C(F)(F)F)c3)c(Oc3cc(F)ccc3Cl)c12 [Example 1, N-(3-Amino-4-(2-chloro-5-fluorophenoxy)-1H-indazol-5-yl)-3-fluoro-5-(trifluoromethyl)benzamide] | < 1000 | < 1000
Nc1n[nH]c2c(-c3cccnc3)cc(NC(=O)c3cc(F)cc(C(F)(F)F)c3)c(Oc3cc(F)ccc3Cl)c12 [Example 16, N-(3-Amino-4-(2-chloro-5-fluorophenoxy)-7-(pyridin-3-yl)-1H-indazol-5-yl)-3-fluoro-5-(trifluoromethyl)benzamide] | 1000 to 5000 | < 1000
CN1CCC(C#Cc2cc(NC(=O)c3cc(F)cc(C(F)(F)F)c3)c(Oc3cc(F)ccc3Cl)c3c(N)nn(C)c23)CC1 [Example 51, N-(3-Amino-4-(2-chloro-5-fluorophenoxy)-1-methyl-7-((1-methylpiperidin-4-yl)ethynyl)-1H-indazol-5-yl)-3-fluoro-5-(trifluoromethyl)benzamide] | ≥ 10000 | < 1000
CN1Cc2cc(NC(=O)c3cc(F)cc(C(F)(F)F)c3)c(Oc3cc(F)ccc3Cl)c3c(N)nn(c23)C1=O [Example 69, N-(2-Amino-3-(2-chloro-5-fluorophenoxy)-7-methyl-8-oxo-7,8-dihydro-6H-pyrazolo[4,5,1-ij]quinazolin-4-yl)-3-fluoro-5-(trifluoromethyl)benzamide] | < 1000 | < 1000
Cn1nc(N)c2c(Oc3cc(F)ccc3Cl)c(NC(=O)N3CCc4ccccc43)cc(Cl)c21 [Example 64, N-(3-Amino-7-chloro-4-(2-chloro-5-fluorophenoxy)-1-methyl-1H-indazol-5-yl)indoline-1-carboxamide] | 1000 to 5000 | < 1000
Nc1n[nH]c2ccc(NC(=O)c3cc(F)cc(C(F)(F)F)c3)c(Oc3cncc(Cl)c3)c12 [Example 3, N-(3-Amino-4-((5-chloropyridin-3-yl)oxy)-1H-indazol-5-yl)-3-fluoro-5-(trifluoromethyl)benzamide] | ≥ 10000 | < 1000

The remaining lines, values ahead:

IC50 [1] [nM] | IC50 [2] [nM] | SMILES
1000 to 5000 | < 1000 | Cn1nc(N)c2c(Oc3cc(F)ccc3Cl)c(NC(=O)c3cncc(C(F)(F)F)c3)cc(Cl)c21 [Example 62, N-(3-Amino-7-chloro-4-(2-chloro-5-fluorophenoxy)-1-methyl-1H-indazol-5-yl)-5-(trifluoromethyl)nicotinamide]
< 1000 | < 1000 | Cn1nc(N)c2c(Oc3cc(F)ccc3Cl)c(NC(=O)c3cc(F)cc(C(F)(F)F)c3)cc(/C=C\C#N)c21 [Example 58, (Z)—N-(3-amino-4-(2-chloro-5-fluorophenoxy)-7-(2-cyanovinyl)-1-methyl-1H-indazol-5-yl)-3-fluoro-5-(trifluoromethyl)benzamide]
≥ 10000 | ≥ 10000 | CN(C)c1nn(C)c2c(Cl)cc(NC(=O)c3cc(F)cc(C(F)(F)F)c3)c(Oc3cc(F)ccc3Cl)c12 [Example 54, N-(7-chloro-4-(2-chloro-5-fluorophenoxy)-3-(dimethylamino)-1-methyl-1H-indazol-5-yl)-3-fluoro-5-(trifluoromethyl)benzamide]
< 1000 | < 1000 | Cn1nc(N)c2c(Oc3cc(F)ccc3Cl)c(NC(=O)c3cc(F)cc(C(F)(F)F)c3)cc(/C=C/C#N)c21 [Example 57, (E)-N-(3-amino-4-(2-chloro-5-fluorophenoxy)-7-(2-cyanovinyl)-1-methyl-1H-indazol-5-yl)-3-fluoro-5-(trifluoromethyl)benzamide]
< 1000 | < 1000 | Cn1nc(N)c2c(Oc3cc(F)ccc3Cl)c(NC(=O)c3cc(F)cc(C(F)(F)F)c3)cc(CCO)c21 [Example 66, N-(3-Amino-4-(2-chloro-5-fluorophenoxy)-7-(2-hydroxyethyl)-1-methyl-1H-indazol-5-yl)-3-fluoro-5-(trifluoromethyl)benzamide]
< 1000 | < 1000 | Cn1nc(N)c2c(Oc3cc(F)ccc3Cl)c(NC(=O)c3cc(F)cc(C(F)(F)F)c3)cc(Cl)c21 [Example 24, N-(3-Amino-7-chloro-4-(2-chloro-5-fluorophenoxy)-1-methyl-1H-indazol-5-yl)-3-fluoro-5-(trifluoromethyl)benzamide]
5000 to 10000 | < 1000 | Cn1nc(N)c2c(Oc3cc(F)ccc3Cl)c(NC(=O)c3cccc(C(F)(F)F)c3)cc(Cl)c21 [Example 61, N-(3-Amino-7-chloro-4-(2-chloro-5-fluorophenoxy)-1-methyl-1H-indazol-5-yl)-3-(trifluoromethyl)benzamide]
< 1000 | < 1000 | Cn1nc(N)c2c(Oc3cc(F)ccc3Cl)c(NC(=O)c3cc(F)cc(Cl)c3)cc(Cl)c21 [Example 60, N-(3-Amino-7-chloro-4-(2-chloro-5-fluorophenoxy)-1-methyl-1H-indazol-5-yl)-3-chloro-5-fluorobenzamide]

From patent US20260250251A1, “HETEROCYCLIC COMPOUNDS AS PI3Ka INHIBITORS” (Pikavation Therapeutics, Inc., priority 2022, published 2026)
